Data as given in patent publication US20230257372A1 (CHONG KUN DANG PHARMACEUTICAL CORP., priority 2020, published 2023).
Where two headings read alike, the source gives them in different places.

Experiments:
human recombinant HDAC1 = target: T1, human recombinant HDAC1 (Homo sapiens, UniProt Q13547); experiment: HDAC1 enzyme activity inhibition (HDAC Fluorimetric Drug Discovery Kit); assay type: biochemical; conditions: read-out: HDAC1
T1 construct: purchased Enzo Life Science, Inc. BML-SE456
Outline: (§1)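 Fluorimetric deacetylase read-out. 5-fold compound dilutions; […] enzyme, 10 μM substrate; 30° C, 60 min; developer 30 min.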

human recombinant HDAC6 = target: T2, human recombinant HDAC6 (Homo sapiens, UniProt Q9UBN7); experiment: HDAC6 enzyme activity inhibition (HDAC Fluorimetric Drug Discovery Kit); assay type: biochemical
T2 construct: purchased Calbiochem Inc. 382180
T2 sequence (Q9UBN7 1-1215): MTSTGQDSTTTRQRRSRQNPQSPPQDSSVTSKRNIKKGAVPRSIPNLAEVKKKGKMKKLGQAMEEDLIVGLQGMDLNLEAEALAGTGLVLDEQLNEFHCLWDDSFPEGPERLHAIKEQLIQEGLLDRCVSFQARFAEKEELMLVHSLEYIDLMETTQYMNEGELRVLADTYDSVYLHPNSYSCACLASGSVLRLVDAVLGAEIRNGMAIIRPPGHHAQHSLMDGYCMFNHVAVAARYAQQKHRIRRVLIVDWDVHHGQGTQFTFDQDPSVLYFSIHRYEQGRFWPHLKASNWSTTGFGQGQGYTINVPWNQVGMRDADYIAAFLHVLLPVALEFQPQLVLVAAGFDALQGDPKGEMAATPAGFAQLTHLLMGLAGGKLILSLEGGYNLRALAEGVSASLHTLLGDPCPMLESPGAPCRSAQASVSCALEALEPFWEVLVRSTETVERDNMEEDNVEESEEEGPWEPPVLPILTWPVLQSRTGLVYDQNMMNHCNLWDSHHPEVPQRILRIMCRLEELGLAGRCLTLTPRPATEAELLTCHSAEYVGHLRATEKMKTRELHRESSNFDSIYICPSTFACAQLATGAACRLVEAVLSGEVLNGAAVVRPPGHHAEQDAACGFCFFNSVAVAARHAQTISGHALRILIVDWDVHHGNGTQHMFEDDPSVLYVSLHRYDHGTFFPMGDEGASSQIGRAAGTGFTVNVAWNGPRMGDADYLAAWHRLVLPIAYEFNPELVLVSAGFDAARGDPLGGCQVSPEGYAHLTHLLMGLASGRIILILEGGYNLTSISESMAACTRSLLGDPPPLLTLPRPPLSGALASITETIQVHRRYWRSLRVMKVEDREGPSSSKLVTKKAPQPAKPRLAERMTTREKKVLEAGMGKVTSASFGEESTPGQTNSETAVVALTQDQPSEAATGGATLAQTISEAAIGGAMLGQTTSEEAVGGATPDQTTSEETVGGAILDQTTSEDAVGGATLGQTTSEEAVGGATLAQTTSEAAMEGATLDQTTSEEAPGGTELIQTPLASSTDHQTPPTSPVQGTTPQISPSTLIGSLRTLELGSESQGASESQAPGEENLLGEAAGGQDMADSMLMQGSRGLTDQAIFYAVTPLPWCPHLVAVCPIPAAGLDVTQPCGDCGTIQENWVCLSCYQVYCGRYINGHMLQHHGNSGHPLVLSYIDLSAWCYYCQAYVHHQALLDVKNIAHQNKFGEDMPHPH
Outline: as §1

[1] = human recombinant HDAC1, Fluor de Lys substrate, 30° C. 60 minutes
[2] = human recombinant HDAC6, same protocol as HDAC1
[3] = human recombinant HDAC1, IC50 calculated with GraphPad Prism
[4] = human recombinant HDAC6, IC50 calculated with GraphPad Prism

T1 sequence (Q13547 whole entry): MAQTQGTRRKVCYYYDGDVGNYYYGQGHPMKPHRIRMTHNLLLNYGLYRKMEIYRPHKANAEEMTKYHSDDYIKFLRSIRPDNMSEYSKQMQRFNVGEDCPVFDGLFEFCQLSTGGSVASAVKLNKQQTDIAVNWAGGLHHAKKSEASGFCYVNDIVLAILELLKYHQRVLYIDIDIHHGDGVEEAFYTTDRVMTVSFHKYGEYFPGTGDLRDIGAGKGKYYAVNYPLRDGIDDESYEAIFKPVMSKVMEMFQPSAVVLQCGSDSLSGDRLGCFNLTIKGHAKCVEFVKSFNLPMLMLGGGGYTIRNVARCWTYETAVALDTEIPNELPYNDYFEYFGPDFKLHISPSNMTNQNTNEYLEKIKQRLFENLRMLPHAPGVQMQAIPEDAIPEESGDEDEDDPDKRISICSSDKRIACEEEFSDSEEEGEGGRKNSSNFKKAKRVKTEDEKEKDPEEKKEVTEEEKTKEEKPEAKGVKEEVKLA

IC50 (human recombinant HDAC1; [1]) [nM] | HDAC6 selectivity (fold) (human recombinant HDAC6; HDAC6 over HDAC1) | IC50 (human recombinant HDAC6; [2]) [nM] | IC50 (human recombinant HDAC1; [3]) [nM] | HDAC6 selectivity (fold) (human recombinant HDAC6; HDAC1 IC50 / HDAC6 IC50) | IC50 (human recombinant HDAC6; [4]) [nM] | Compound
> 50000 | 2793 | 17.9 | – | – | – | CC1CCN(Cc2ccc(-c3cn(Cc4ccc(-c5nnc(C(F)F)o5)cc4F)nn3)cc2)CC1 [Compound 4611, 2-(difluoromethyl)-5-(3-fluoro-4-((4-(4-((4-methylpiperidin-1-yl)methyl)phenyl)-1H-1,2,3-triazol-1-yl)methyl)phenyl)-1,3,4-oxadiazole]
– | – | – | > 50000 | 154 | 324 | FC(F)c1nnc(-c2ccc(Cn3cc(-c4ccccc4-n4cncn4)nn3)nc2)o1 [Compound 4286, 2-(6-((4-(2-(1H-1,2,4-triazol-1-yl)phenyl)-1H-1,2,3-triazol-1-yl)methyl)pyridin-3-yl)-5-(difluoromethyl)-1,3,4-oxadiazole]
– | – | – | > 50000 | 1524 | 32.8 | CN1CCN(Cc2cccc(-c3cn(Cc4ccc(-c5nnc(C(F)F)o5)cn4)nn3)c2)CC1 [Compound 3917, 2-(difluoromethyl)-5-(6-((4-(3-((4-methylpiperazin-1-yl)methyl)phenyl)-1H-1,2,3-triazol-1-yl)methyl)pyridin-3-yl)-1,3,4-oxadiazole]
– | – | – | > 50000 | 106 | 471 | CC(=O)N1CCC(Cc2cn(Cc3ccc(-c4nnc(C(F)F)o4)cn3)nn2)CC1 [Compound 4015, 1-(4-((1-((5-(5-(difluoromethyl)-1,3,4-oxadiazol-2-yl)pyridin-2-yl)methyl)-1H-1,2,3-triazol-4-yl)methyl)piperidin-1-yl)ethan-1-one]
– | – | – | > 50000 | 95 | 522 | FC(F)c1nnc(-c2ccc(Cn3cc(C4CN(C5COC5)C4)nn3)nc2)o1 [Compound 3955, 2-(difluoromethyl)-5-(6-((4-(1-(oxetan-3-yl)azetidin-3-yl)-1H-1,2,3-triazol-1-yl)methyl)pyridin-3-yl)-1,3,4-oxadiazole]
> 50000 | 2475 | 20.2 | – | – | – | CCN1CCN(c2cccc(-c3cn(Cc4ccc(-c5nnc(C(F)F)o5)cn4)nn3)c2F)CC1 [Compound 4570, 2-(difluoromethyl)-5-(6-((4-(3-(4-ethylpiperazin-1-yl)-2-fluorophenyl)-1H-1,2,3-triazol-1-yl)methyl)pyridin-3-yl)-1,3,4-oxadiazole]
– | – | – | > 50000 | 219 | 22.8 | CN1CCC(Nc2cccc(-c3cn(Cc4ccc(-c5nnc(C(F)F)o5)cn4)nn3)c2)CC1 [Compound 3830, N-(3-(1-((5-(5-(difluoromethyl)-1,3,4-oxadiazol-2-yl)pyridin-2-yl)methyl)-1H-1,2,3-triazol-4-yl)phenyl)-1-methylpiperidin-4-amine]
> 50000 | 880 | 56.8 | – | – | – | OCc1ccc(-c2cn(Cc3ccc(-c4nnc(C(F)F)o4)cc3F)nn2)nc1 [Compound 17545, (6-(1-(4-(5-(difluoromethyl)-1,3,4-oxadiazol-2-yl)-2-fluorobenzyl)-1H-1,2,3-triazol-4-yl)pyridin-3-yl)methanol]
– | – | – | > 50000 | 1396 | 35.8 | CC(C)(C)C(=O)Nc1cccc(-c2cn(Cc3ccc(-c4nnc(C(F)F)o4)cc3)nn2)c1 [Compound 4327, N-(3-(1-(4-(5-(difluoromethyl)-1,3,4-oxadiazol-2-yl)benzyl)-1H-1,2,3-triazol-4-yl)phenyl)pivalamide]
– | – | – | > 50000 | 351 | 142 | CN1C[C@@H]2C[C@H]1CN2c1cc(-c2cn(Cc3ccc(-c4nnc(C(F)F)o4)cc3F)nn2)ccc1F [Compound 4430, 2-(difluoromethyl)-5-(3-fluoro-4-((4-(4-fluoro-3-((1S,4S)-5-methyl-2,5-diazabicyclo[2.2.1]heptan-2-yl)phenyl)-1H-1,2,3-triazol-1-yl)methyl)phenyl)-1,3,4-oxadiazole]
– | – | – | > 50000 | 830 | 60.2 | FC(F)c1nnc(-c2ccc(Cn3cc(-c4cccc(NC5CCOCC5)c4)nn3)cc2)o1 [Compound 4325, N-(3-(1-(4-(5-(difluoromethyl)-1,3,4-oxadiazol-2-yl)benzyl)-1H-1,2,3-triazol-4-yl)phenyl)tetrahydro-2H-pyran-4-amine]
> 50000 | 3246 | 15.4 | – | – | – | CC(C)N1CCN(c2cc(-c3cn(Cc4ccc(-c5nnc(C(F)F)o5)cn4)nn3)ccn2)CC1 [Compound 4592, 2-(difluoromethyl)-5-(6-((4-(2-(4-isopropylpiperazin-1-yl)pyridin-4-yl)-1H-1,2,3-triazol-1-yl)methyl)pyridin-3-yl)-1,3,4-oxadiazole]
> 50000 | 1392 | 35.9 | – | – | – | Fc1c(-c2cn(Cc3ccc(-c4nnc(C(F)F)o4)cn3)nn2)cccc1N1CCN(CC2CC(F)(F)C2)CC1 [Compound 4601, 2-(6-((4-(3-(4-((3,3-difluorocyclobutyl)methyl)piperazin-1-yl)-2-fluorophenyl)-1H-1,2,3-triazol-1-yl)methyl)pyridin-3-yl)-5-(difluoromethyl)-1,3,4-oxadiazole]
– | – | – | > 50000 | 405 | 123 | CC(=O)N1CCC(F)(c2cn(Cc3ccc(-c4nnc(C(F)F)o4)cn3)nn2)CC1 [Compound 4009, 1-(4-(1-((5-(5-(difluoromethyl)-1,3,4-oxadiazol-2-yl)pyridin-2-yl)methyl)-1H-1,2,3-triazol-4-yl)-4-fluoropiperidin-1-yl)ethan-1-one]
– | – | – | > 50000 | 1039 | 48.1 | CCN1CCc2ccc(-c3cn(Cc4ccc(-c5nnc(C(F)F)o5)cn4)nn3)cc2C1 [Compound 4211, 2-(difluoromethyl)-5-(6-((4-(2-ethyl-1,2,3,4-tetrahydroisoquinolin-7-yl)-1H-1,2,3-triazol-1-yl)methyl)pyridin-3-yl)-1,3,4-oxadiazole]
> 50000 | 619 | 80.7 | – | – | – | Fc1cc(-c2nnc(C(F)F)o2)ccc1Cn1cc(-c2ccc3c(c2)CN(C2CCOCC2)C3)nn1 [Compound 17458, 2-(difluoromethyl)-5-(3-fluoro-4-((4-(2-(tetrahydro-2H-pyran-4-yl)isoindolin-5-yl)-1H-1,2,3-triazol-1-yl)methyl)phenyl)-1,3,4-oxadiazole]
– | – | – | > 50000 | 431 | 116 | CC(C)N1CCN(c2cc(-c3cn(Cc4ccc(-c5nnc(C(F)F)o5)cc4F)nn3)ccc2F)CC1 [Compound 4425]
– | – | – | > 50000 | 1253 | 39.9 | CN1CCN(Cc2ccc(-c3cn(Cc4ccc(-c5nnc(C(F)F)o5)cc4F)nn3)cc2)CC1 [Compound 4473, 2-(difluoromethyl)-5-(3-fluoro-4-((4-(4-((4-methylpiperazin-1-yl)methyl)phenyl)-1H-1,2,3-triazol-1-yl)methyl)phenyl)-1,3,4-oxadiazole]
> 50000 | 628 | 79.6 | – | – | – | Fc1cc(-c2nnc(C(F)F)o2)cnc1Cn1cc(-c2ccccc2)nn1 [Compound 17347, 2-(difluoromethyl)-5-(5-fluoro-6-((4-phenyl-1H-1,2,3-triazol-1-yl)methyl)pyridin-3-yl)-1,3,4-oxadiazole]

Compound | IC50 (human recombinant HDAC1; [1]) [nM] | HDAC6 selectivity (fold) (human recombinant HDAC6; HDAC6 over HDAC1) | IC50 (human recombinant HDAC6; [2]) [nM] | IC50 (human recombinant HDAC1; [3]) [nM] | HDAC6 selectivity (fold) (human recombinant HDAC6; HDAC1 IC50 / HDAC6 IC50) | IC50 (human recombinant HDAC6; [4]) [nM]
FC(F)c1nnc(-c2ccc(Cn3cnc(Br)c3)nc2)o1 [Compound 3949, 2-(6-((4-bromo-1H-imidazol-1-yl)methyl)pyridin-3-yl)-5-(difluoromethyl)-1,3,4-oxadiazole] | – | – | – | > 50000 | 445 | 112
